Entries after “also recorded” stand apart in the source; their conditions may differ. Each block holds one compound with its values, some of them ahead of it.
Experiments:
NTR1 [1] = biological target: T1, NTR1 (Homo sapiens, UniProt P30989); assay: NTR1 Ca2+ Flux assay; assay type: cell-based
NTR1 [2] = biological target: T1, NTR1; assay: NTR1 HCS primary assay; assay type: cell-based; conditions: for loss in potency compared to 32: NTR1 HCS EC50 relative to compound 32
[3] = test system: GPR55, APJ, k-opiod, CCR6, and CXCR6; assay: Functional high content or β-arrestin based GPCR screens; assay type: cell-based; conditions: result in words
[4] = test system: Fa2N-4 Immortalized Human Hepatocytes; assay: Toxicity towards hepatocytes; assay type: cell-based; conditions: LC50 towards human hepatocytes versus NTR1 potency
[5] = test system: adrenergic receptors (α1a, α1B, α1D, α2A); assay: Panlabs/Ricerca lead profiling panel; assay type: binding; conditions: at 10 μM, range across α1a
[6] = NTR1 HCS EC50 relative to compound 5

T1 sequence (P30989 whole entry): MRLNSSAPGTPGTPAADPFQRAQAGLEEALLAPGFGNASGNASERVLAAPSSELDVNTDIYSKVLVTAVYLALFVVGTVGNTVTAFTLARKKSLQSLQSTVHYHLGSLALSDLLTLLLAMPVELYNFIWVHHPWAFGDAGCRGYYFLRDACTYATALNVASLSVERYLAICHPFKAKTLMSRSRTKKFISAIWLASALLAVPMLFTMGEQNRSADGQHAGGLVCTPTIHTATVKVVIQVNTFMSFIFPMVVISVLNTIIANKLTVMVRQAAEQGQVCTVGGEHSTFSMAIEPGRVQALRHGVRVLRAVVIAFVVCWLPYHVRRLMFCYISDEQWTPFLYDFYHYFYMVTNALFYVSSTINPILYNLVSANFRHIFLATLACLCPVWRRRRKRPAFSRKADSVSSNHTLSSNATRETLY

Structure (SMILES): COc1cccc(OC)c1-c1cc(C(=O)N[C@@H](CC(C)C)C(=O)O)nn1-c1ccnc2cc(Cl)ccc12 [Compound 2, reference compound]
EC50 (NTR1 [1]; NTR1 Ca2+ flux assay): < 156 nM

Structure (SMILES): CCOc1cc2c(N3CCN(c4ccccc4[N+](=O)[O-])CC3)nc(-c3ccccc3)nc2cc1OC [Compound 19]
loss of potency compared to 5 (NTR1 [2]; [6]): > 6 fold

Structure (SMILES): COc1cc2nc(C3CC3)nc(N3CCN(c4ccccc4OC)CC3)c2cc1OC [Compound 32, 2-cyclopropyl-6,7-dimethoxy-4-(4-(2-methoxyphenyl)-piperazin-1-yl)quinazoline]
response in Ca2+ mobilization / flux assay (NTR1 [1]; result in words): no significant response; also recorded: no significant activity | cross reactivity [3]: no cross reactivity | window for toxicity [4]: > 15 fold | improvement in activity over 5 (NTR1 [2]; [6]): 3 fold | binding [5]: 63-100%

Structure (SMILES): COc1ccccc1N1CCN(c2nc(C3CCC3)nc3ccccc23)CC1 [Compound 39]
loss of potency compared to 5 (NTR1 [2]; [6]): 4-6 fold

Structure (SMILES): COc1ccccc1N1CCN(c2nc(C3CCC3)nc3cc4c(cc23)OCO4)CC1 [Compound 40]
loss of potency compared to 5 (NTR1 [2]; [6]): over 6 fold

Now from value to compound:

loss of potency compared to 5 (NTR1 [2]; [6]): > 6 fold
Structure (SMILES): COc1cc2nc(C3CCC3)nc(N3CCN(c4ccccn4)CC3)c2cc1OC [Compound 18]

loss of potency compared to 5 (NTR1 [2]; [6]): 4-6 fold
Structure (SMILES): COc1ccc2c(N3CCN(c4ccccc4OC)CC3)nc(C3CCC3)nc2c1 [Compound 38]

loss in potency compared to 32 (NTR1 [2]): 3-10 fold
Structure (SMILES): CCOc1ccccc1N1CCN(c2nc(C3CC3)nc3cc(OC)c(OC)cc23)CC1 [Compound 42]

loss in potency compared to 32 (NTR1 [2]): 3-10 fold
Structure (SMILES): COc1cc2nc(C3CC3)nc(N3CCN(c4ccccc4Cl)CC3)c2cc1OC [Compound 43]

Reference: PMC3940307 (ACS medicinal chemistry letters, 2013)
